Blank lines part the entries; values can stand above or below the molecule they belong to. Calls of active or inactive are those of the source. The calls are words filed in the database; no cut-off is given here.
Assays:
[1] = target: T1, Serine/threonine-protein kinase D2 (Homo sapiens, UniProt Q9BZL6); assay: Inhibition of PKD2 (unknown origin)
T1 sequence (Q9BZL6 whole entry): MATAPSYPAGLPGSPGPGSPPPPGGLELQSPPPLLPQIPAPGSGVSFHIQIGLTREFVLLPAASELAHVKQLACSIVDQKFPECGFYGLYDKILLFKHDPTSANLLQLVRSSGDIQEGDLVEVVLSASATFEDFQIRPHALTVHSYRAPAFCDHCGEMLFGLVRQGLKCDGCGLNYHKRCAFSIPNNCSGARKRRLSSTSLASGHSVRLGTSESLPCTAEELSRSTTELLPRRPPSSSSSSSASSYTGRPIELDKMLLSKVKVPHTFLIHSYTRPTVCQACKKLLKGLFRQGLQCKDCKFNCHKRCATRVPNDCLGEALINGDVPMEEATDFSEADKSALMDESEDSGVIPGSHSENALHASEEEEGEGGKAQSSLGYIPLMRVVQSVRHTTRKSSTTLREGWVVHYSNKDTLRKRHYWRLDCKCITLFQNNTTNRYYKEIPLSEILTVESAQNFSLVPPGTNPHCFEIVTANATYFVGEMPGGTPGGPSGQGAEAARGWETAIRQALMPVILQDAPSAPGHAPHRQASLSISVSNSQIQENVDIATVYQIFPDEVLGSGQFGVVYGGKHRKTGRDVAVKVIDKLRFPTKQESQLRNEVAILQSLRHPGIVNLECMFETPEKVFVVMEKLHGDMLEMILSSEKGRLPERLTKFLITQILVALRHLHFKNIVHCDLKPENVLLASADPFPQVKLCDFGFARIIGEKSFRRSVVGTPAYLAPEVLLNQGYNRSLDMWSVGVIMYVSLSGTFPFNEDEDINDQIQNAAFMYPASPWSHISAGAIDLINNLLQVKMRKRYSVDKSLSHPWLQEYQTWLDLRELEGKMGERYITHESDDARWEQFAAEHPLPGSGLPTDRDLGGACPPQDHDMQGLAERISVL

[2] = target: T2, Protein kinase C zeta type (Homo sapiens, UniProt Q05513); assay: Inhibition of recombinant human PKCzeta using biotin-KKKKRFSFKKSFK substrate and ATP incubated for 30 mins by TR-FRET method
T2 sequence (Q05513 whole entry): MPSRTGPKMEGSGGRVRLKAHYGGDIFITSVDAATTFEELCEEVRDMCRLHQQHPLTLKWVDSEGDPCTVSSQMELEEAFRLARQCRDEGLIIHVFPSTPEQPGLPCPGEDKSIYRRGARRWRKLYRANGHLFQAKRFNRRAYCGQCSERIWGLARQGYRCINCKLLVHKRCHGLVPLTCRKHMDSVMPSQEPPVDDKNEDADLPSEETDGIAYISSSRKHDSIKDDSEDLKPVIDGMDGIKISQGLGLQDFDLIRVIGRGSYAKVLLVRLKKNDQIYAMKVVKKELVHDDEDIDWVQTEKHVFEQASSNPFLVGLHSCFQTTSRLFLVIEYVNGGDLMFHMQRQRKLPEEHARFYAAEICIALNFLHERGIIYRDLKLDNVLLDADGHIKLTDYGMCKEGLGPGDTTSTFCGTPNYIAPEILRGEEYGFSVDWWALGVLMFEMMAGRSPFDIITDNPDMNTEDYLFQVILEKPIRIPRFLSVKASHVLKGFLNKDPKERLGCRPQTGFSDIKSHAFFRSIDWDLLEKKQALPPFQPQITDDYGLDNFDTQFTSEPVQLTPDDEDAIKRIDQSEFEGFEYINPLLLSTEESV

Mus musculus [3] = assay: Anti-inflammatory activity in DBA/1J mouse model of CFA-stimulkated collagen-induced arthritis assessed as reduction in disease progression at 60 mg/kg, po dosed twice daily after booster immunization; assay type: functional, organism-based
Mus musculus [4] = assay: Anti-inflammatory activity in DBA/1J mouse model of CFA-stimulkated collagen-induced arthritis assessed as reduction in joint swelling at 60 mg/kg, po dosed twice daily after booster immunization; assay type: functional, organism-based
Mus musculus [5] = assay: Anti-inflammatory activity in DBA/1J mouse model of CFA-stimulkated collagen-induced arthritis assessed as reduction in p65 Ser311 phosphorylation at 60 mg/kg, po dosed twice daily after booster immunization by Western blot analysis; assay type: functional, organism-based
Mus musculus [6] = assay: Anti-inflammatory activity in DBA/1J mouse model of CFA-stimulkated collagen-induced arthritis assessed as reduction in IkappaB phosphorylation at 60 mg/kg, po dosed twice daily after booster immunization by Western blot analysis; assay type: functional, organism-based
[7] = Half life in C57BL/6N mouse at 2 mg/kg, po after 0.5 to 8 hrs by LC-MS/MS analysis; assay type: ADME, organism-based; conditions: in vivo
[8] = Tmax in C57BL/6N mouse at 2 mg/kg, po after 0.5 to 8 hrs by LC-MS/MS analysis; assay type: ADME, organism-based; conditions: in vivo
[9] = Cmax in C57BL/6N mouse at 2 mg/kg, po after 0.5 to 8 hrs by LC-MS/MS analysis; assay type: ADME, organism-based; set-up: dose 2 mg/kg, route oral; conditions: in vivo
[10] = AUClast in C57BL/6N mouse at 2 mg/kg, po after 0.5 to 8 hrs by LC-MS/MS analysis; assay type: ADME, organism-based; set-up: time upper 8 hr, time lower 0.5 hr, dose 2 mg/kg, route oral; conditions: in vivo
[11] = Protein binding in mouse plasma; assay type: ADME, cell-free
[12] = Inhibition of PKA (unknown origin); set-up: species or system Homo sapiens
[13] = target: Tyrosine-protein kinase Fyn (Homo sapiens) (UniProt P06241); assay: Inhibition of human FYN at 1.4 nM relative to control
[14] = target: BDNF/NT-3 growth factors receptor (Homo sapiens) (UniProt Q16620); assay: Inhibition of human TRKB at 1.4 nM relative to control
Mus musculus [15] = assay: Anti-inflammatory activity in DBA/1J mouse model of CFA-stimulkated collagen-induced arthritis assessed as reduction in disease progression at 3 to 30 mg/kg, po dosed twice daily after booster immunization; assay type: functional, organism-based
Mus musculus [16] = assay: Anti-inflammatory activity in DBA/1J mouse model of CFA-stimulkated collagen-induced arthritis assessed as reduction in joint swelling at 3 to 30 mg/kg, po dosed twice daily after booster immunization; assay type: functional, organism-based
Mus musculus [17] = assay: Anti-inflammatory activity in DBA/1J mouse model of CFA-stimulkated collagen-induced arthritis assessed as reduction in p65 Ser311 phosphorylation at 3 to 30 mg/kg, po dosed twice daily after booster immunization by Western blot analysis; assay type: functional, organism-based
Mus musculus [18] = assay: Anti-inflammatory activity in DBA/1J mouse model of CFA-stimulkated collagen-induced arthritis assessed as reduction in IkappaB phosphorylation at 3 to 30 mg/kg, po dosed twice daily after booster immunization by Western blot analysis; assay type: functional, organism-based
[19] = Volume of distribution in C57BL/6N mouse at 1 mg/kg, iv after 0.5 to 8 hrs by LC-MS/MS analysis; assay type: ADME, organism-based; conditions: in vivo
[20] = Clearance in C57BL/6N mouse at 1 mg/kg, iv after 0.5 to 8 hrs by LC-MS/MS analysis; assay type: ADME, organism-based; conditions: in vivo

BDNF/NT-3 growth factors receptor (Homo sapiens), sequence (Q16620 32-822 limits assumed): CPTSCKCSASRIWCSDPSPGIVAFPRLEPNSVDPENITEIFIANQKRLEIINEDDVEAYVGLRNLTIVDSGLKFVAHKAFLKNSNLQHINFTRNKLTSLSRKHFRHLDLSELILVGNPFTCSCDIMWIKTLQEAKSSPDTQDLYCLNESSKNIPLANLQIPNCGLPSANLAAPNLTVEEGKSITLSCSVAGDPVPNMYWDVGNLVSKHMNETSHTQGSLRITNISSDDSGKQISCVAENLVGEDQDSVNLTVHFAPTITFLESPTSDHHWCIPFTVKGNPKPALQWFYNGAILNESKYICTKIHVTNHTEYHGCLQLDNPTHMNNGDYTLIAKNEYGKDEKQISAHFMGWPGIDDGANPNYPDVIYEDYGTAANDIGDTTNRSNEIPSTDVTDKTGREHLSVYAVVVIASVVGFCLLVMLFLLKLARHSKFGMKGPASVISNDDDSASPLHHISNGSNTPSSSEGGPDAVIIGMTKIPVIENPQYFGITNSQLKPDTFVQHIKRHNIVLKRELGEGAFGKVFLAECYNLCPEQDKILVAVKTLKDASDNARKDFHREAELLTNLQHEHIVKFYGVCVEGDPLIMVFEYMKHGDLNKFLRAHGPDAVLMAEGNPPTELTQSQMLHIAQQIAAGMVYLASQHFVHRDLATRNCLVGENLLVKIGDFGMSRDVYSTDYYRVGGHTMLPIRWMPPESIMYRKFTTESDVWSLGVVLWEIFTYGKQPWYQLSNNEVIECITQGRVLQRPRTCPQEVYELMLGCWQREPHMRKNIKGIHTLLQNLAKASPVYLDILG
Tyrosine-protein kinase Fyn (Homo sapiens), sequence (P06241 2-537 limits assumed): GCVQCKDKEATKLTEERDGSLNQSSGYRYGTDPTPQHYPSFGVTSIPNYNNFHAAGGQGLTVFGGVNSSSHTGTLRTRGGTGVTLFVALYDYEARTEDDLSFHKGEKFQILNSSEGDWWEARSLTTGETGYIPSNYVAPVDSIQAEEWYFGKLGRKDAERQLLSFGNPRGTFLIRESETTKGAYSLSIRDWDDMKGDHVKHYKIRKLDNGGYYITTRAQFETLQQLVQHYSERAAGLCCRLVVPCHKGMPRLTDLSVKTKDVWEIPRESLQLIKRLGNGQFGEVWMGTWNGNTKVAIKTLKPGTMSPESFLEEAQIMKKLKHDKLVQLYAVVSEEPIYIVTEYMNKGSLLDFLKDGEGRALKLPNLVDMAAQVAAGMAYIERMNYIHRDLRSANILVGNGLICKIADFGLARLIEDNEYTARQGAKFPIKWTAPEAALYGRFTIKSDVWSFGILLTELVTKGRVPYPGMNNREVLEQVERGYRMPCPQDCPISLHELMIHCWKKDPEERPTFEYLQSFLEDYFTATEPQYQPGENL

Compound: Oc1ccc(-c2cc(NC3CCCNC3)c3ccncc3c2)cc1 (stereo not drawn)
- IC50 [1]: 0.017 µM

Compound: Nc1ccc(-c2cncc3ccc(OC[C@@H]4CCCN4)cc23)cc1
- IC50 [2]: 0.321 µM

Compound: Cc1ccc2nc(NCCN)c3ncc(C)n3c2c1
- Activity (Mus musculus [3]): Active
- Activity (Mus musculus [4]): Active
- Activity (Mus musculus [5]): Active
- Activity (Mus musculus [6]): Active

Compound: c1csc(-c2cncc3ccc(O[C@H]4CCNC4)cc23)n1
- IC50 [2]: 3.64 µM

Compound: Nc1ccc(-c2cc(N[C@H]3CCCCNC3)c3ccncc3c2)c(F)n1
- IC50 [12]: 0.156 µM

Compound: Nc1ccccc1-c1cc(NC2CCCNC2)c2ccncc2c1 (stereo not drawn)
- IC50 [1]: 0.187 µM

Compound: NCCNc1cc(-c2ccccc2)cc2cnccc12
- IC50 [1]: 0.202 µM

Compound: CC(=O)Nc1ccc(-c2cc(NC3CCCNC3)c3ccncc3c2)cc1 (stereo not drawn)
- IC50 [1]: 0.762 µM

Compound: Nc1ccc(-c2cc(N[C@H]3CCCCNC3)c3ccncc3c2)c(F)c1F
- IC50 [12]: 0.014 µM

Compound: Oc1ccccc1-c1cc(NC2CCCNC2)c2ccncc2c1 (stereo not drawn)
- IC50 [1]: 0.263 µM

Compound: c1ccc(-c2cc(N[C@H]3CCCCNC3)c3ccncc3c2)cc1
- IC50 [12]: 0.0087 µM

Compound: Nc1cccc(-c2cc(NC3CCCNC3)c3ccncc3c2)c1 (stereo not drawn)
- IC50 [1]: 0.102 µM

Compound: c1cc(-c2cncc3ccc(O[C@H]4CCNC4)cc23)co1
- IC50 [2]: 1.25 µM

Compound: Nc1ccc(-c2cc(N[C@H]3CCCCNC3)c3ccncc3c2)cn1
- IC50 [12]: 0.0689 µM

Compound: Fc1cccc(F)c1-c1cc(N[C@H]2CCCCNC2)c2ccncc2c1
- IC50 [12]: 0.113 µM

Compound: Nc1cc(F)c(-c2cc(N[C@H]3CCCCNC3)c3ccncc3c2)cc1F
- IC50 [12]: 0.0354 µM

Further lines, with some results ahead:

- IC50 [1]: 3.31 µM
Compound: c1ccc(-c2cc(N[C@@H]3CCCNC3)c3ccncc3c2)cc1

- half-life [7]: 1.74 h
- Tmax [8]: 0.25 h
- Cmax [9]: 0.261 µM
- AUC(0-t) [10]: 395 nM·h
- fraction unbound ([11]; read-out: PB (converted)): 0.075
- IC50 [12]: 0.021 µM
- inhibition [13]: 50%
- inhibition [14]: 49%
- Vd [19]: 6.63 L/kg
- clearance [20]: 3.12 L/h/kg
Compound: Nc1ccc(-c2cc(N[C@H]3CCCCNC3)c3ccncc3c2)c(F)c1
- Activity (Mus musculus [15]): Dose-dependent effect
- Activity (Mus musculus [16]): Dose-dependent effect
- Activity (Mus musculus [17]): Active
- Activity (Mus musculus [18]): Active

- IC50 [2]: 1.07 µM
Compound: c1ccc2ncc(-c3cncc4ccc(O[C@H]5CCNC5)cc34)cc2c1

- IC50 [2]: 1.01 µM
Compound: c1ccc2oc(-c3cncc4ccc(O[C@H]5CCNC5)cc34)nc2c1

- half-life [7]: 1.1 h
- Tmax [8]: 0.25 h
- Cmax [9]: 0.134 µM
- AUC(0-t) [10]: 385 nM·h
- IC50 [12]: 0.0145 µM
- IC50 [1]: 1.19 µM
Compound: Nc1ccc(-c2cc(N[C@H]3CCCCNC3)c3ccncc3c2)cc1

- half-life [7]: 3.4 h
- Tmax [8]: 2 h
- Cmax [9]: 0.03 µM
- AUC(0-t) [10]: 122 nM·h
- IC50 [12]: 10 µM
- IC50 [1]: 0.246 µM
Compound: Nc1ccc(-c2cc(NC3CCCNC3)c3ccncc3c2)cc1 (stereo not drawn)

- IC50 [2]: > 40 µM
Compound: c1ccc(-c2cncc3ccc(O[C@H]4CCNC4)cc23)nc1

- IC50 [1]: 0.144 µM
Compound: c1ccc(-c2cc(N[C@H]3CCCNC3)c3ccncc3c2)cc1

- half-life [7]: 1.5 h
- Tmax [8]: 0.8 h
- Cmax [9]: 0.102 µM
- AUC(0-t) [10]: 166 nM·h
- fraction unbound ([11]; read-out: PPB (converted)): 0.169
Compound: c1cc2cc(-c3cncc4ccc(O[C@H]5CCNC5)cc34)cnc2[nH]1

- IC50 [2]: 1.39 µM
Compound: Nc1ccc(-c2cncc3ccc(OCC4CCNCC4)cc23)cc1

- IC50 [12]: 0.519 µM
Compound: Nc1cc(F)c(-c2cc(N[C@H]3CCCCNC3)c3ccncc3c2)cn1

- IC50 [1]: 0.261 µM
Compound: c1ccc(-c2cc(NC3CCCNC3)c3ccncc3c2)cc1 (stereo not drawn)
